Test results as given in article PMC2569088, “Hydroxylated Metabolites of the Polybrominated Diphenyl Ether Mixture DE-71 Are Weak Estrogen Receptor-α Ligands” (Environmental Health Perspectives, 2008).
Read-outs that look alike come from different tables or passages of the source.

Assays:
[1] = tested on: ERE-luciferase (ER-α-positive BG1Luc4E2 cells); assay: ERE-luciferase reporter assay in stably transfected BG1Luc4E2 ovarian cancer cells; type: cell-based, human; details: for EC50: determined using the chemical's own maximum effect set at 100%, luciferase 18 hr after addition; for Fold-induction at EC50: normalized to vehicle control (DMSO = 1)
Source text: MDA-MB-231 breast cancer cells ([Cailleau et al. 1978]) obtained from ATCC (American Type Culture Collection; Manassas, VA) and BG1Luc4E2 ovarian cancer cells, a gift from M. Denison (University of California, Davis, CA), were used in estrogen bioassays. BG1LucE2 cells are BG-1 ovarian cancer cells ([Geisinger et al. 1989]) stably transfected with an estrogen-responsive plasmid ([Rogers and Denison 2000]). Most cell culture media and supplements were purchased from Gibco/Invitrogen (Carlsbad, CA), except bovine growth serum (BGS; Hyclone, Logan, UT) and geneticin (G418; Sigma). Most charcoal-stripping reagents and endotoxin-free water were purchased from Sigma-Aldrich (St. Louis, MO) except Dulbecco’s phosphate-buffered saline (DPBS; Mediatech Inc., Herndon, VA). MDA-MB-231 cells were maintained in growth medium (GM): minimum essential media (MEM) supplemented with L-glutamine (2 mM), nonessential amino acids (0.1 mM), HEPES buffer (10 mM), […] insulin, and 5% vol/vol BGS]. BG1Luc4E2 cells were maintained in BG1-GM: alpha-MEM supplemented with HEPES buffer (10 mM), geneticin (0.4 g/L) and 10% vol/vol BGS. Basal medium (BM) for MDA-MB-231 cells consisted of a formulation similar to GM, except that phenol red–free MEM and 3% charcoal-stripped BGS were used. BM for BG1Luc4E2 cells (BG1-BM) consisted of phenol red–free Dulbecco’s modified Eagle media: Nutrient Mixture F12 (DMEM:F12; Gibco/Invitrogen) supplemented with HEPES buffer (10 mM) and 10% vol/vol charcoal-stripped BGS. BGS was stripped of estrogenic activity by methods described previously ([Biswas and Vonderhaar 1987]; [Lippman et al. 1976]).
(§1) We used two ERE-luciferase reporter gene systems: one transiently transfected and the other an established stably transfected cell line. For the transient system, ER-negative MDA-MB-231 breast cancer cells were plated in BM. Two days later cells were transfected using Tfx-20 (Promega, Madison, WI) with expression vectors for ER-α(HEG0; from P. Chambon, Université Louis Pasteur, Illkrich, France), the estrogen-responsive firefly luciferase reporter construct ERE2-pS2-luc ([Long et al. 2001]), and the control Renilla luciferase reporter construct pRL-TK (Promega). Cells were treated with test chemicals 1 hr after transfection, and assayed for luciferase activity after 18 hr. Results are expressed as the ratio of firefly luciferase to Renilla luciferase. For the stable reporter system, ER-positive BG1Luc4E2 ovarian cancer cells ([Rogers and Denison 2000]) were incubated in BG1-BM for 5 days before treatment; cells were then assayed for luciferase activity 18 hr after addition of the test compound.
All statistics were performed using GraphPad Prism, version 3.0a, for Macintosh (GraphPad Software, San Diego CA). For each analysis, we determined whether groups had unequal variances by Bartlett’s test. Group averages with equal variances were compared to each other either by one-way analysis of variance (ANOVA) with Tukey post-test or by unpaired t-test as appropriate. Group averages with unequal variances were compared to each other by t-test with Welch’s correction. […] All values are expressed as mean ± SD or SE as indicated. We considered groups statistically different if p < 0.05 by ANOVA with Tukey posttest or t-test (two-tailed). Dose–response studies were also subjected to regression analysis using a sigmoidal curve fitting model: […]

[2] = target: T1, recombinant ER-α (Homo sapiens, UniProt P03372); assay: Recombinant ER-α binding assay (3H-E2 displacement)
T1 construct: purchased Panvera/Invitrogen, Madison, WI
T1 sequence (P03372 1-595): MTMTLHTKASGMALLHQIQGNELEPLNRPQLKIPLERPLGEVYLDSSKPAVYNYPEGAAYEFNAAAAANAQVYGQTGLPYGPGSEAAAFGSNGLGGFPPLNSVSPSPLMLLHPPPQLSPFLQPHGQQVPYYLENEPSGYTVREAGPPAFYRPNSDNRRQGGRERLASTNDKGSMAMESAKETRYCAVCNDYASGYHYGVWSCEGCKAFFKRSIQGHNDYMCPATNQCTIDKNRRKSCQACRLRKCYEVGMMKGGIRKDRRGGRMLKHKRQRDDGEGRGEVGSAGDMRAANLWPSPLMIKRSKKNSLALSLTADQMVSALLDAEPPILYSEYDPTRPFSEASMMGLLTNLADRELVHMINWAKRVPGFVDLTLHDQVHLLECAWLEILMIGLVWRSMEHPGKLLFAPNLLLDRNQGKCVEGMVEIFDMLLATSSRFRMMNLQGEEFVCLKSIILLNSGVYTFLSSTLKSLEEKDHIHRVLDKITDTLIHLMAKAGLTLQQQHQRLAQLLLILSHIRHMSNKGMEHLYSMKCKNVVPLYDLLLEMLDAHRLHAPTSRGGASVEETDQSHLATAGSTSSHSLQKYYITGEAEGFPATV

[3] = tested on: ERE-luciferase (BG1Luc4E2 cells); assay: ERE-luciferase induction in BG1Luc4E2 cells after cotreatment with 10^−11 M E2; type: cell-based, human; details: for Effect on E2-induced ERE-luciferase activity (cotreatment): compared with the maximal effect of E2 alone
Method: as §1
See “Material and Methods” for details. […] Error bars indicate SE.

[4] = tested on: BG1Luc4E2 cells; details: 5–50 μM, alone or in combination with E2
[5] = tested on: ERE-luciferase (MDA-MB-231 cells transfected with ER-α or BG1Luc4E2 cells); assay: ERE-luciferase induction by microsomal metabolites (rat liver microsome incubation products); details: female rat liver microsomes, complete NADPH generating system
Method: as §1

[6] = 1 nM 3H-E2, 0.6 nM recombinant ER-α, 4°C overnight

| Compound | EC50 [1] | Relative affinity (E2 IC50 ÷ test chemical IC50 × 100) [2] [%] | Effect on E2-induced ERE-luciferase activity (cotreatment) [3] | IC50 [2] [µM] | EC50 ([1]; Homo sapiens, read-out: EC50) [µM] | other results |
| --- | --- | --- | --- | --- | --- | --- |
| Oc1ccc(Br)cc1Br [2,4-DBP, 2,4-dibromophenol] | No effect | – | – | – | – | IC50 (concentration yielding 50% displacement of 3H-E2 from receptor) [2, 6]: No effect |
| Oc1c(Br)ccc(Oc2ccc(Br)cc2Br)c1Br [3-OH-BDE-47, 3-OH-2, 2′, 4, 4′-tetrabromodiphenyl] | – | 0.001 | able to potentiate the ERE-luciferase induction of E2 | – | – | IC50 [2, 6]: 52 µM |
| Oc1ccc(Oc2ccc(Br)cc2Br)c(Br)c1Br [4-OH-BDE-42, 4-HO-2, 2′,3, 4′-tetra-bromodiphenyl] | – | 0.005 | appeared to induce ERE-luciferase above the E2 maximum, but the effect was not statistically significant | 14 | – | – |
| Oc1cc(Br)c(Oc2ccc(Br)cc2Br)cc1Br [4′-OH-BDE-49, 4′-OH-2, 2′,4, 5′-tetrabromodiphenyl] | – | 0.03 | beyond the maximal effect of E2 alone | 2.3 | 13 | Relative effect (test chemical-to-E2 ratio of luciferase induction at EC50) [1]: 0.36 ratio; Fold-induction at EC50 [1]: 1.2 |
| Oc1cc(Br)ccc1Oc1ccc(Br)cc1Br [2′-OH-BDE-28, 2′-OH - 2,4, 4′ - tribromodiphenyl] | – | 0.001 | able to antagonize the effect of E2 | 60 | – | Concentration at which antagonism of E2 was observed [3]: 50 µM; Toxicity (protein content of culture wells at harvest) [4]: no toxicity |
| Oc1cc(Br)cc(Br)c1Oc1ccc(Br)cc1Br [6-OH-BDE-47, 6-OH-2, 2′,4, 4′-tetra-bromodiphenyl] | No effect | 0.001 | able to antagonize the effect of E2 | 11 | – | Concentration at which antagonism of E2 was observed [3]: 5 µM; Toxicity (protein content of culture wells at harvest) [4]: no toxicity |
| Oc1ccc(Oc2ccc(Br)cc2Br)c(Br)c1 [4′-OH-BDE-17, 4-OH-2, 2′, 4-tribromodiphenyl] | – | 0.03 | beyond the maximal effect of E2 alone | 2.1 | 4.7 | Relative effect (test chemical-to-E2 ratio of luciferase induction at EC50) [1]: 1.30 ratio; Relative estrogen potency (ratio of the E2 EC50 to EEP) [1]: 3.4 × 10^−7 ratio; Relative estrogenic potency compared with DE-71 [1]: approximately 10 fold; Emax ([1]; Homo sapiens, read-out: Estimated maximal effect higher than E2): 30%; Fold-induction at EC50 [1]: 4.3 |
| C[C@]12CC[C@@H]3c4ccc(O)cc4CC[C@H]3[C@@H]1CC[C@@H]2O [E2, 1, 3, 5(10)-estra-triene-3, 17β-diol, reference compound] | – | – | – | – | 1.2e-06 | Test concentrations inducing ERE-luciferase [1]: above 10^−13 M; Decrease of activity by microsomal incubation [5]: 78% |
| Oc1cc(Br)c(Br)cc1Br [2,4,5-TBP, 2,4,5-tribromophenol] | No effect | – | – | – | – | IC50 (concentration yielding 50% displacement of 3H-E2 from receptor) [2, 6]: No effect |
